Results from ChEMBL document CHEMBL4190267, “Discovery of potent molecular chimera (CM358) to treat human metastatic melanoma” (Eur J Med Chem, 2017).
The source made the active and inactive calls. No cut-off for these calls is given here.

What was measured:
[1] = target: DNA topoisomerase 2-alpha (Homo sapiens) (UniProt P11388); assay: Inhibition of human topoisomerase-2alpha assessed as reduction in enzyme-mediated decatenation at 100 uM using kinetoplast DNA as substrate after 25 mins by ethidium bromide staining based agarose gel electrophoresis method
WM 266-4 [2] = assay: Induction of apoptosis in human WM266.4 cells assessed as late apoptotic cells at 10 uM after 24 hrs by Annexin V-FITC/propidium iodide staining based flow cytometry (reference value: 1.41%); type: functional
WM 266-4 [3] = assay: Induction of apoptosis in human WM266.4 cells assessed as live cells at 10 uM after 24 hrs by Annexin V-FITC/propidium iodide staining based flow cytometry (reference value: 94.7%); type: functional
MDA-MB-231 = assay: Growth inhibition of human MDA-MB-231 cells preincubated for 6 hrs followed compound washout measured after 24 hrs by XTT assay; type: functional
WM 266-4 [4] = assay: (§1) Antitumor activity against human WM266.4 cells xenografted in athymic Foxn1 nu mouse assessed as tumor growth inhibition at 10 mg/kg, ip administered once daily for 7 days followed by resting period of 2 days repeated for 4 weeks starting from 5 days post tumor inoculation measured on day 21 relative to control; type: functional; settings: WM 266-4, ip, read-out: TGI
WM 266-4 [5] = assay: Induction of apoptosis in human WM266.4 cells assessed as live cells at 10 uM after 2 hrs by Annexin V-FITC/propidium iodide staining based flow cytometry (reference value: 94.7%); type: functional
Mus musculus [6] = assay: Toxicity in athymic Foxn1 nu mouse assessed as effect on body weight at 10 mg/kg, ip administered once daily for 3 days followed by resting period of 4 days repeated for 4 weeks; type: organism-based; settings: in vivo
WM 266-4 [7] = assay: Induction of apoptosis in human WM266.4 cells assessed as necrotic cells at 10 uM after 2 hrs by Annexin V-FITC/propidium iodide staining based flow cytometry (reference value: 1.22%); type: functional
WM 266-4 [8] = assay: Growth inhibition of human WM266.4 cells at 5 uM incubated up to 72 hrs by XTT assay relative to control; type: functional; settings: WM 266-4, 72 h, read-out: GI
WM 266-4 [9] = assay: as §1, with “for 3” for “for 7”, “of 4” for “of 2”; type: functional; settings: WM 266-4, ip, read-out: TGI
WM 266-4 [10] = assay: Induction of apoptosis in human WM266.4 cells assessed as early apoptotic cells at 25 uM after 24 hrs by Annexin V-FITC/propidium iodide staining based flow cytometry (reference value: 2.64%); type: functional
WM 266-4 [11] = assay: Antitumor activity against human WM266.4 cells xenografted in athymic Foxn1 nu mouse assessed as tumor growth inhibition at 10 mg/kg, ip administered once daily for 3 days followed by resting period of 4 days repeated for 4 weeks starting from 5 days post tumor inoculation measured on day 19; type: functional, organism-based
WM 266-4 [12] = assay: Induction of necrosis in human WM266.4 cells at 25 uM after 2 to 6 hrs by Annexin V-FITC/propidium iodide staining based fluorescence microscopic method; type: functional, cell-based
WM 266-4 [13] = assay: Induction of apoptosis in human WM266.4 cells assessed as early apoptotic cells at 25 uM after 2 hrs by Annexin V-FITC/propidium iodide staining based flow cytometry (reference value: 2.64%); type: functional
WM 266-4 [14] = assay: Growth inhibition of human WM266.4 cells at 1 uM incubated up to 96 hrs by XTT assay; type: functional, cell-based
WM 266-4 [15] = assay: Induction of apoptosis in human WM266.4 cells assessed as late apoptotic cells at 10 uM after 8 hrs by Annexin V-FITC/propidium iodide staining based flow cytometry (reference value: 1.41%); type: functional
NCI-H1299 = assay: Growth inhibition of human NCI-H1299 cells preincubated for 6 hrs followed compound washout measured after 24 hrs by XTT assay; type: functional
[16] = Drug metabolism in human WM266.4 cells assessed as amonafide after 48 hrs by LC-MS analysis; type: ADME, cell-based; settings: wm 266-4, 48 h
A 172 = assay: Growth inhibition of human A172 cells preincubated for 6 hrs followed compound washout measured after 24 hrs by XTT assay; type: functional
[17] = Drug metabolism in human WM266.4 cells assessed as chlorambucil after 48 hrs by LC-MS analysis; type: ADME, cell-based; settings: wm 266-4, 48 h
Mus musculus [18] = assay: Toxicity in athymic Foxn1 nu mouse assessed as abnormal physiological changes at 10 mg/kg, ip administered once daily for 3 days followed by resting period of 4 days repeated for 4 weeks; type: organism-based; settings: in vivo
WM 266-4 [19] = assay: Induction of apoptosis in human WM266.4 cells assessed as necrotic cells at 25 uM after 2 hrs by Annexin V-FITC/propidium iodide staining based flow cytometry (reference value: 1.22%); type: functional
WM 266-4 [20] = assay: Induction of apoptosis in human WM266.4 cells assessed as early apoptotic cells at 10 uM after 8 hrs by Annexin V-FITC/propidium iodide staining based flow cytometry (reference value: 2.64%); type: functional
WM 266-4 [21] = assay: Growth inhibition of human WM266.4 cells at 25 uM after 24 hrs by XTT assay; type: functional, cell-based
WM 266-4 [22] = assay: Induction of necrosis in human WM266.4 cells at 5 to 25 uM after 16 hrs by Annexin V-FITC/propidium iodide staining based fluorescence microscopic method; type: functional, cell-based

Chain of DNA topoisomerase 2-alpha (Homo sapiens) (P11388 whole entry): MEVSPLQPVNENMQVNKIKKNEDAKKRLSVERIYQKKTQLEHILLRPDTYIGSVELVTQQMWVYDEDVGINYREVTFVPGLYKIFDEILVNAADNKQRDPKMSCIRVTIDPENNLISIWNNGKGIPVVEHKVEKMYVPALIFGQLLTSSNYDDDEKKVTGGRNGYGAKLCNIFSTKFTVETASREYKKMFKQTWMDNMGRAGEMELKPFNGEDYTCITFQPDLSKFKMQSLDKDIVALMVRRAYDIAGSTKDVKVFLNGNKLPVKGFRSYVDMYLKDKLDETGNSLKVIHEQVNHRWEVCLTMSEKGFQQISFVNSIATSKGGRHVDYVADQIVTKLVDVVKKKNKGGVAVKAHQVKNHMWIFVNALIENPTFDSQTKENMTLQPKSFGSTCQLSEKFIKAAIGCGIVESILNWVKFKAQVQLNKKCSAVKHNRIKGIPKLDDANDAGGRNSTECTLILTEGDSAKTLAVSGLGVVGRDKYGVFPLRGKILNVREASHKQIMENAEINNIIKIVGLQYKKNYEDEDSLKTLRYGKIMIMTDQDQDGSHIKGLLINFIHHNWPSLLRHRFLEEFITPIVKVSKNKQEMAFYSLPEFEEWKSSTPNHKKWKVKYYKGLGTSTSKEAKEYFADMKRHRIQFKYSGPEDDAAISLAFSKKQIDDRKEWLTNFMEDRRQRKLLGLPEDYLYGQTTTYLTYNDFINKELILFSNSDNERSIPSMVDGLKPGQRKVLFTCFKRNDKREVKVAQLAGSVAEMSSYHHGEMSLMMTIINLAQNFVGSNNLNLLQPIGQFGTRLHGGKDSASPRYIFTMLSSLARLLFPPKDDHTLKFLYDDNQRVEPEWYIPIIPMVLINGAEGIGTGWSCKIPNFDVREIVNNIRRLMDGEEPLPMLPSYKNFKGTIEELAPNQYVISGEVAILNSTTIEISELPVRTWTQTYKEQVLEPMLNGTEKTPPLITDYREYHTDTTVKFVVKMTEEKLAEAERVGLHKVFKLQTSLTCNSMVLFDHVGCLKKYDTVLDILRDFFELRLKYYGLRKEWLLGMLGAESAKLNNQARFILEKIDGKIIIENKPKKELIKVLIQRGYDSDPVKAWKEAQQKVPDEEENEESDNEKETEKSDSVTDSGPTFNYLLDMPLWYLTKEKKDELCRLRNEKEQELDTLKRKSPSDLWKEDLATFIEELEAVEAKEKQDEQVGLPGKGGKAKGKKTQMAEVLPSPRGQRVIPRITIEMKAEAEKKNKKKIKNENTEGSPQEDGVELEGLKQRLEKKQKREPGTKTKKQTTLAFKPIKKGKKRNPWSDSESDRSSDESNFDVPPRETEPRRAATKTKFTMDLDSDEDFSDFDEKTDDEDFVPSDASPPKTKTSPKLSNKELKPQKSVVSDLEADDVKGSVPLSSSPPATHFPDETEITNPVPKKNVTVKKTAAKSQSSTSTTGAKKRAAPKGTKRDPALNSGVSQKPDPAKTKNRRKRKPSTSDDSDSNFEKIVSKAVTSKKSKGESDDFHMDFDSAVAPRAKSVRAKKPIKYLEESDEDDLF

With CN(C)CCN1C(=O)c2cccc3cc(NC(=O)CCCc4ccc(N(CCCl)CCCl)cc4)cc(c23)C1=O.O=C(O)C(F)(F)F the inhibition [1] was “Active”, the Activity (WM 266-4 [2]) was 1.29% and the Activity (WM 266-4 [3]) was 84.5%. For the same compound, the GI50 (MDA-MB-231) was 3.1 µM, the inhibition in vivo at 10 mg/kg (WM 266-4 [4]) was 40% and the Activity (WM 266-4 [5]) was 86.9%. The Activity (Mus musculus [6]) was “Non-Toxic”, the Activity (WM 266-4 [7]) was 6.58% and the inhibition of growth at 5 µM (WM 266-4 [8]) was 100%. The inhibition in vivo at 10 mg/kg (WM 266-4 [9]) was 40%, the Activity (WM 266-4 [10]) was 18.8% and the TGI (WM 266-4 [11]) was “Active”. For the same compound, the Activity (WM 266-4 [12]) was “Active”, the Activity (WM 266-4 [13]) was 6.79% and the “growth inhibition (GI)” value (WM 266-4 [14]) was “inactive”. For the same compound, the Activity (WM 266-4 [15]) was 1.59%, the GI50 (NCI-H1299) was 6.8 µM and the Drug metabolism [16] was “Metabolite_Notdetected”. The GI50 (A 172) was 7.5 µM, the Drug metabolism [17] was “Metabolite_Notdetected” and the Activity (Mus musculus [18]) was “Non-Toxic”. For the same compound, the Activity (WM 266-4 [19]) was 16.4%, the Activity (WM 266-4 [20]) was 6.66% and the “growth inhibition (GI)” value (WM 266-4 [21]) was “Active”. For the same compound, the Activity (WM 266-4 [22]) was “Active”.
